Results as given in patent publication US20210070748A1, “INHIBITORS OF BRUTONS TYROSINE KINASE” (Pharmacyclics LLC, priority 2015, published 2021).
Where two headings read alike, the source gives them in different places.

Experiments:
JAK3 = target: T1, JAK3 (Homo sapiens, UniProt P52333); experiment: Inhibition of a panel of kinases, in vitro HotSpot kinase assay: JAK3; type: biochemical; conditions: read-out: IC50 JAK3
T1 sequence (P52333 1-1124): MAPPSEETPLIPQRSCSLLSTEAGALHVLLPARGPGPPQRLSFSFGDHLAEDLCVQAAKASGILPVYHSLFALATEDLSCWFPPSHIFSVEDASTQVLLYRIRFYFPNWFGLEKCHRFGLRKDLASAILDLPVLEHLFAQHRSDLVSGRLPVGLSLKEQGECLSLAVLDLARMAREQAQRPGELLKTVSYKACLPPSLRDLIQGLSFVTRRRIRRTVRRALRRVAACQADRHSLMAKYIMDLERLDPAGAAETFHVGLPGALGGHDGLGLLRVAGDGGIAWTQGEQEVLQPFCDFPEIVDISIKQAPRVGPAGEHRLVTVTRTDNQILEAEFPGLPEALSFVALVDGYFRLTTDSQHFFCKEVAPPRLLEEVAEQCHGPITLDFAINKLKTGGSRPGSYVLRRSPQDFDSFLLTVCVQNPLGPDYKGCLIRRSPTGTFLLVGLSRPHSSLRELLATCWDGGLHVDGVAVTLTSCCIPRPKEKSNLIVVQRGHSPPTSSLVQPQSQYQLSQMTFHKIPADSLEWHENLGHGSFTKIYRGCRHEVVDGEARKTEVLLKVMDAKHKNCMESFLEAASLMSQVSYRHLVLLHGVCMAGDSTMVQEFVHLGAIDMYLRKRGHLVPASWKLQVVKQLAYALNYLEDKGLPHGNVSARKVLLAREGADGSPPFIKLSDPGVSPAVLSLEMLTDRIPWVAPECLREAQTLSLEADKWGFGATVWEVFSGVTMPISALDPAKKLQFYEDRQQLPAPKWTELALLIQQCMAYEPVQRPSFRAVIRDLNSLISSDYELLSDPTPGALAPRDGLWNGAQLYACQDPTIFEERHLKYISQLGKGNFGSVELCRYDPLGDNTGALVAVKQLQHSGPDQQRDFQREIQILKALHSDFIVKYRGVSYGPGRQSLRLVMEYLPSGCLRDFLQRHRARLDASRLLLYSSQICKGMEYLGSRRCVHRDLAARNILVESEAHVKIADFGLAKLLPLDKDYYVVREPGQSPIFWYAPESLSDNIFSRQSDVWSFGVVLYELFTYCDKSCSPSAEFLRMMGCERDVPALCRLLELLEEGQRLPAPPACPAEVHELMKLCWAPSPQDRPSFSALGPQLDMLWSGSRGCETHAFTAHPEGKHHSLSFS

SRC = SRC (Homo sapiens, UniProt P12931); experiment: Inhibition of a panel of kinases, in vitro HotSpot kinase assay: SRC; type: biochemical
SRC, sequence (P12931 whole entry): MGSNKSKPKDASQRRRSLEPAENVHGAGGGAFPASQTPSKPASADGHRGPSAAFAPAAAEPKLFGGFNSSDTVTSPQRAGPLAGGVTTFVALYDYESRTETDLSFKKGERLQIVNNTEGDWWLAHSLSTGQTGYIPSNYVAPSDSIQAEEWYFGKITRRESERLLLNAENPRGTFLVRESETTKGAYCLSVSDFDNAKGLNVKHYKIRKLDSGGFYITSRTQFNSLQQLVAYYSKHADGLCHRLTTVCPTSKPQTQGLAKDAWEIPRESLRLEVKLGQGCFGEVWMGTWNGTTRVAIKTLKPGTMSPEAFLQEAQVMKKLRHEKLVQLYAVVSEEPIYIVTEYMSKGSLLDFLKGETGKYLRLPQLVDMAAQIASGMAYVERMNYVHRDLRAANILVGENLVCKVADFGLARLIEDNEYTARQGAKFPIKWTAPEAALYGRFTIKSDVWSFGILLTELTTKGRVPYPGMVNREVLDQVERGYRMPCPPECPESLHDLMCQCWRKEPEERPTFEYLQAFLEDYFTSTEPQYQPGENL
Description: The degree of inhibition of a panel of kinases is determined using the in vitro HotSpot kinase assay (purified enzymes, ^33P-ATP, an appropriate substrate and 1 μM ATP).

[1] = D-compounds panel data, 1 μM ATP

IC50 (JAK3; [1]) [nM]	IC50 (SRC; [1]) [nM]	SMILES	IC50 (JAK3; E compounds, Table 17) [nM]	IC50 (SRC; E compounds, Table 17) [nM]
> 10000	100 to 1000	C[C@@H]1[C@H](NC(=O)c2ccc(C3CC3)cc2)CCCN1c1cnc(C(N)=O)c(Nc2cnc(N3CCN(C)CC3)nc2)n1 [Example D-318, 5-[(2R,3R)-3-(4-cyclopropylbenzamido)-2-methylpiperidin-1-yl]-3-{[2-(4-methylpiperazin-1-yl)pyrimidin-5-yl]amino}pyrazine-2-carboxamide]		
> 10000	10 to 100	C[C@@H]1[C@H](NC(=O)c2ccc(C3CC3)cc2)CCCN1c1cnc(C(N)=O)c(Nc2cnn(CC3CCOCC3)c2)n1 [Example D-319, 5-[(2R,3R)-3-(4-cyclopropylbenzamido)-2-methylpiperidin-1-yl]-3-{[1-(oxan-4-ylmethyl)-1H-pyrazol-4-yl]amino}pyrazine-2-carboxamide]		
1000 to 10000	10 to 100	C[C@@H]1[C@H](NC(=O)c2ccc(C3CC3)cc2)CCCN1c1cnc(C(N)=O)c(Nc2ccc(N3CCC(C(=O)N(C)C)CC3)cc2)n1 [Example D-320, 5-[(2R,3R)-3-(4-cyclopropylbenzamido)-2-methylpiperidin-1-yl]-3-({4-[4-(dimethylcarbamoyl)piperidin-1-yl]phenyl}amino)pyrazine-2-carboxamide]		
> 10000	100 to 1000	C[C@@H]1[C@H](NC(=O)c2ccc(C3CC3)cc2)CCCN1c1cnc(C(N)=O)c(Nc2cnn(CC3CCC(F)(F)CC3)c2)n1 [Example D-321, 5-[(2R,3R)-3-(4-cyclopropylbenzamido)-2-methylpiperidin-1-yl]-3-({1-[(4,4-difluorocyclohexyl)methyl]-1H-pyrazol-4-yl}amino)pyrazine-2-carboxamide]		
		C=CC(=O)N1CC[C@@H](N(C)c2cnc(C(N)=O)c(Nc3ccc(C4(C)CCN(C5CC5)CC4)cc3)n2)C1 [Example E-104, (R)-5-((1-acryloylpyrrolidin-3-yl)(methyl)amino)-3-(4-(1-cyclopropyl-4-methylpiperidin-4-yl)phenylammo)pyrazine-2-carboxamide]	< 10	10 to 100
		C=CC(=O)N1CC[C@@H](N(C)c2cnc(C(N)=O)c(Nc3ccc(C4(C)CCN(C5CCCC5)CC4)cc3)n2)C1 [Example E-106, (R)-5-((1-acryloylpyrrolidin-3-yl)(methyl)amino)-3-(4-(1-cyclopentyl-4-methylpiperidin-4-yl)phenylamino)pyrazine-2-carboxamide]	< 10	≤ 10
		C=CC(=O)N1CCC[C@@H](Nc2cnc(C(N)=O)c(Nc3ccc(C4CCN(C5CCCC5)CC4)cc3)n2)C1 [Example E-108, (R)-5-(1-acryloylpiperidin-3-ylamino)-3-(4-(1-cyclopentylpiperidin-4-yl)phenylamino)pyrazine-2-carboxamide]	< 10	10 to 100
